Experimental data from patent US9724300B2, “Long-lasting, controlled-release local anesthetic liposome preparation” (Terumo Kabushiki Kaisha, priority 2012, dated 2017).
Structures can show the parent of a compound that is named as a salt.

System: postoperative pain model of rats
Test: Postoperative pain model of rats (foot sole pain model), von Frey filament test
Type: in vivo, male Wistar rats
Method: A pentobarbital sodium injection (Nembutal injection, made by Sumitomo Dainippon Pharma Co., Ltd.) (0.3 mL) was intraperitoneally administered to male Wistar rats for anesthesia. Thereafter, a skin incision was made with a No. 11 scalpel blade (made by FEATHER Safety Razor Co., Ltd.) longitudinally at a position of 5 mm from the heel of the left foot bottom. The plantaris muscle was taken out from the incision site, followed by longitudinal incision. Subsequently, the skin was subjected to a knotted suture with a 5-0 nylon thread by double stitches. Moreover, a […] was applied in a single layer thereonto so as not to permit the administered controlled-release preparation to leak. […] More particularly, using the von Frey hair set (commercial name: Touch-Test, made by North Coast Medical Inc.) requiring a given stress before bending, this was pressed against the operated site of rats vertically from beneath the mesh of a gauge wherein rats were accommodated, whereupon a stress (a withdrawal threshold against mechanical stimuli) was determined at the time when the rat raised paws in surprise. […] Using the postoperative pain model of rat set out above, the analgesic effect of the bupivacaine hydrochloride-containing, controlled-release preparation of Example 1 was evaluated according to the von Frey filament test. […]

Structure (SMILES): CCCCN1CCCCC1C(=O)Nc1c(C)cccc1C (centres unmarked) [bupivacaine hydrochloride, Bupivacaine hydrochloride]
- analgesic effect (increase of threshold value) (bupivacaine hydrochloride itself (stock solution), similar postoperative pain model of rats): no analgesic effect was obtained even at the postoperative first day

Structure (SMILES): CCCN1CCCC[C@H]1C(=O)Nc1c(C)cccc1C [ropivacaine hydrochloride, Ropivacaine hydrochloride]
- analgesic effect (increase of threshold value) (ropivacaine hydrochloride itself (stock solution), similar postoperative pain model of rat): no analgesic effect was obtained even at the postoperative first day
